# Data as given in patent US8779157B2, “MGLUR4 allosteric potentiators, compositions, and methods of treating neurological dysfunction” (Vanderbilt University, priority 2009, dated 2014).
# Biological target: mGluR4 (UniProt Q14833)
# Assay: mGluR4 potentiation assay (fluorescence, Ca2+ or thallium/GIRK readout; EC20 agonist)
# Type: cell-based, human / rat
# Details: half maximal effective concentration for mGluR4 potentiation; species of receptor not given
# Experimental: The disclosed compounds and compositions can be evaluated for their ability to act as a potentiator of metabotropic glutamate receptor activity, in particular mGluR4 activity, by any suitable known methodology known in the art. For example, Chinese Hamster Ovary (CHO) cells transfected with human mGluR4 or HEK cells co-transfected with rat mGluR4 and the G-protein regulated Inwardly Rectifying Potassium channel (GIRK) were plated in clear bottom assay plates for assay in a Hamamatsu FDSS Fluorometric Plate Reader. The cells were loaded with either a Ca2+-sensitive fluorescent dye or the thallium responsive dye and the plates were washed and placed into a suitable kinetic plate reader. For human mGluR4 assays, a fluorescence baseline was established for 3-5 seconds, the disclosed compounds were then added to the cells, and the response in cells was measured. Approximately two and a half minutes later, a concentration of mGluR4 orthosteric agonist (e.g. glutamate or L-AP4) eliciting approximately 20% (EC20) of the maximal agonist response was added to the cells, and the response was measured. Two minutes later, a concentration of mGluR4 agonist (e.g. glutamate or L-AP4) eliciting 80% (EC80) of the maximal agonist response was added to the cells, and the response was measured. For rat mGluR4/GIRK experiments, a baseline was established for approximately five seconds, disclosed compounds were added, and either an EC20 or EC80 concentration of agonist was added approximately two and one half minutes later. Potentiation of the agonist response of mGluR4 by the disclosed compounds was observed as an increase in response to the EC20 concentration of agonist in the presence of compound compared to the response to agonist in the absence of compound. Similarly, antagonism of the agonist response of mGluR4 by the disclosed compounds was observed as a decrease in response to the EC80 concentration of agonist in the presence of compound compared to the response to agonist in the absence of compound.
# The above described assay operated in two modes. In the first mode, a range of concentrations of the disclosed compounds are added to cells, followed by a single fixed concentration of agonist. If the compound acts as a potentiatior, an EC50 value for potentiation and a maximum extent of potentiation by the compound at this concentration of agonist is determined by non-linear curve fitting. If the compound acts as a noncompetitive antagonist, an IC50 value is determined by non-linear curve fitting. In the second mode, several fixed concentrations of the disclosed compounds are added to various wells on a plate, followed by a range in concentrations of agonist for each concentration of disclosed compound. The EC50 values for the agonist at each concentration of compound are determined by non-linear curve fitting. A decrease in the EC50 value of the agonist with increasing concentrations of the sample compound (a leftward shift of the agonist concentration-response curve) is an indication of the degree of mGluR4 potentiation at a given concentration of the sample compound. A decrease in the maximal response of the agonist with increasing concentrations of the sample compounds, with or without a rightward shift in agonist potency, is an indication of the degree of noncompetitive antagonism at mGluR4. The second mode also indicates whether the sample compounds also affect the maximum response to mGluR4 to agonists.
row,Compound,EC50 [µM]
1,"O=C(Nc1ccc(N2C(=O)C3COCCN3C2=O)c(Cl)c1)c1cccc(F)n1 (centres unmarked) [Example 1.3.29, N-(3-Chloro-4-(1,3-dioxodihydro-1H-imidazo[5,1-c][1,4]oxazin-2(3H,8H,8aH)-yl)phenyl)-6-fluoropicolinamide]",6.73
2,"O=C(Nc1ccc(N2C(=O)C3COCCN3C2=S)c(Cl)c1)c1ccccn1 (centres unmarked) [Example 1.3.30, N-(3-Chloro-4-(1-oxo-3-thioxodihydro-1H-imidazo[5,1-c][1,4]oxazin-2(3H, 8H,8aH)-yl)phenyl)picolinamide]",1.47
3,"O=C(Nc1ccc(N2C(=O)C3COCCN3C2=S)c(Cl)c1)c1cnccn1 (centres unmarked) [Example 1.3.31, N-(3-Chloro-4-(1-oxo-3-thioxodihydro-1H-imidazo[5,1-c][1,4]oxazin-2(3H,8H,8aH)-yl)phenyl)pyrazine-2-carboxamide]",3.56
4,"O=C(Nc1ccc(N2C(=O)C3COCCN3C2=S)c(Cl)c1)c1cccc(Cl)n1 (centres unmarked) [Example 1.3.32, 6-Chloro N-(3-chloro-4-(1-oxo-3-thioxodihydro-1H-imidazo[5,1-c][1,4]oxazin-2(3H,8H, 8aH)-yl)phenyl)picolinamide]",1.49
5,"O=C(Nc1ccc(N2C(=O)C3COCCN3C2=S)c(Cl)c1)c1cccs1 (centres unmarked) [Example 1.3.33, N-(3-Chloro-4-(1-oxo-3-thioxodihydro-1H-imidazo[5,1-c][1,4]oxazin-2(3H,8H,8aH)-yl)phenyl)thiophene-2-carboxamide]",8.46
6,"O=C(Nc1ccc(N2C(=O)C3COCCN3C2=S)c(Cl)c1)c1nccs1 (centres unmarked) [Example 1.3.34, N-(3-Chloro-4-(1-oxo-3-thioxodihydro-1H-imidazo[5,1-c][1,4]oxazin-2(3H,8H,8aH)-yl)phenyl)thiazole-2-carboxamide]",1.17
7,"O=C(Nc1ccc(N2C(=O)C3COCCN3C2=S)c(Cl)c1)c1cscn1 (centres unmarked) [Example 1.3.35, N-(3-Chloro-4-(1-oxo-3-thioxodihydro-1H-imidazo[5,1-c][1,4]oxazin-2(3H,8H,8aH)-yl)phenyl)thiazole-4-carboxamide]",1.49
8,"O=C(Nc1ccc(N2C(=O)C3COCCN3C2=S)c(Cl)c1)c1ncc(F)cc1F (centres unmarked) [Example 1.3.36, N-(3-Chloro-4-(1-oxo-3-thioxodihydro-1H-imidazo[5,1-c][1,4]oxazin-2(3H, 8H,8aH)-yl)phenyl)-3,5-difluoropicolinamide]",1.68
9,"O=C(Nc1ccc(N2C(=O)C3COCCN3C2=S)c(Cl)c1)c1ccc(Cl)o1 (centres unmarked) [Example 1.3.37, 5-Chloro-N-(3-chloro-4-(1-oxo-3-thioxodihydro-1H-imidazo[5,1-c][1,4]oxazin-2(3H, 8H,8aH)-yl)phenyl)-furan-2-carboxamide]",5.05
10,"O=C(Nc1ccc(N2C(=O)C3COCCN3C2=S)c(Cl)c1)c1cccc(F)n1 (centres unmarked) [Example 1.3.38, N-(3-Chloro-4-(1-oxo-3-thioxodihydro-1H-imidazo[5,1-c][1,4]oxazin-2(3H, 8H,8aH)-yl)phenyl)-6-fluoropicolinamide]",0.933
11,"O=C(Nc1ccc(N2C(=O)C3COCCN3C2=S)c(Cl)c1)c1ncccc1F (centres unmarked) [Example 1.3.39, N-(3-Chloro-4-(1-oxo-3-thioxodihydro-1H-imidazo[5,1-c][1,4]oxazin-2(3H, 8H,8aH)-yl)phenyl)-3-fluoropicolinamide]",1.2
12,"O=C(Nc1ccc(N2C(=O)C3CSCCN3C2=O)c(Cl)c1)c1ccccn1 (centres unmarked) [Example 1.3.40, N-(3-chloro-4-(1,3-dioxodihydro-1H-imidazo[5,1-c][1,4]thiazin-2(3H,8H,8aH)-yl)phenyl)picolinamide]",0.403
13,"O=C(Nc1ccc(N2C(=O)C3CS(=O)(=O)CCN3C2=O)c(Cl)c1)c1ccccn1 (centres unmarked) [Example 1.3.41, N-(3-chloro-4-(1,3-dioxodihydro-1H-imidazo[5,1-c][1,4]dioxothiazin-2(3H,8H,8aH)-yl)phenyl)picolinamide]",3.03
14,"O=C(Nc1ccc(N2C(=O)C3CSCCN3C2=O)c(Cl)c1)c1cccc(F)n1 (centres unmarked) [Example 1.3.42, N-(3-chloro-4-(1,3-dioxodihydro-1H-imidazo[5,1-c][1,4]thiazin-2(3H,8H,8aH)-yl)phenyl)-6-fluoropicolinamide]",1.17
15,"O=C(Nc1ccc(N2C(=O)C3CSCCN3C2=O)c(Cl)c1)c1cscn1 (centres unmarked) [Example 1.3.43, N-(3-chloro-4-(1,3-dioxodihydro-1H-imidazo[5,1-c][1,4]thiazin-2(3H,8H,8aH)-yl)phenyl)thiazole-4-carboxamide]",3.76
16,"CC(C)(C)OC(=O)N1CCN2C(=O)N(c3ccc(NC(=O)c4ccccn4)cc3Cl)C(=O)C2C1 (centres unmarked) [Example 1.3.44, tert-butyl-2-(2-chloro-4-(picolinamide)phenyl)-1,3-dioxohexahydroimidazo[1,5-a]pyrazine-7(1H)-carboxylate]",0.754
17,O=C(Nc1ccc(N2C(=O)C3CNCCN3C2=O)c(Cl)c1)c1ccccn1 (centres unmarked) [Example 1.3.45],4.2
18,"CS(=O)(=O)N1CCN2C(=O)N(c3ccc(NC(=O)c4ccccn4)cc3Cl)C(=O)C2C1 (centres unmarked) [Example 1.3.47, N-(3-chloro-4-(7-(methylsulfonyl)-1,3-dioxotetrahydroimidazo[1,5-a]pyrazin-2(1H,3H,5H)-yl)phenyl)picolinamide]",4.71
19,"CC12CCCCN1C(=O)N(c1ccc(NC(=O)c3ccccn3)cc1Cl)C2=O (centres unmarked) [Example 1.3.48, N-(3-chloro-4-(8a-methyl-1,3-dioxohexahydroimidazo[1,5-a]pyridin-2(3H)-yl)phenyl)picolinamide]",0.434
20,"CC12CCCCN1C(=S)N(c1ccc(NC(=O)c3ccccn3)cc1Cl)C2=O (centres unmarked) [Example 1.3.49, N-(3-chloro-4-(8a-methyl-1-oxo-3-thioxohexahydroimidazo[1,5-a]pyridin-2(3H)-yl)phenyl)picolinamide]",0.185
21,"O=C(Nc1ccc(N2C(=O)NC3(CCCCC3)C2=O)c(C(F)(F)F)c1)c1ccccn1 [Example 1.3.50, N-(4-(2,4-dioxo-1,3-diazaspiro[4.5]decan-3-yl)-3-(trifluoromethyl)phenyl)picolinamide]",0.454
22,"O=C(Nc1ccc(N2C(=O)NC3(CCC(c4ccccc4)CC3)C2=O)c(Cl)c1)c1ccccn1 (centres unmarked) [Example 1.3.51, N-(3-chloro-4-(2,4-dioxo-8-phenyl-1,3-diazaspiro[4.5]decan-3-yl)phenyl)picolinamide]",2.14
23,"CN1C(=O)N(c2ccc(NC(=O)c3ccccn3)cc2Cl)C(=O)C12CCCCC2 [Example 1.3.52, N-(3-chloro-4-(1-methyl-2,4-dioxo-1,3-diazaspiro[4.5]decan-3-yl)phenyl)picolinamide]",0.178
24,"O=C(Nc1ccc(N2C(=O)NC3(CC4CCC3C4)C2=O)c(Cl)c1)c1ccccn1 (centres unmarked) [Example 1.3.53, N-(3-chloro-4-(2′,5′-dioxospiro[bicyclo[2.2.1]heptane-2,4′-imidazolidin]-1′-yl)phenyl)picolinamide]",0.217
25,"CN1C(=O)N(c2ccc(NC(=O)c3ccccn3)cc2Cl)C(=O)C12CC1CCC2C1 (centres unmarked) [Example 1.3.54, N-(3-chloro-4-(3′-methyl-2′,5′-dioxospiro[bicyclo[2.2.1]heptane-2,4′-imidazolidin]-1′-yl)phenyl)picolinamide]",0.325
26,"O=C(Nc1ccc(N2C(=O)NC3(CCCCC3)C2=O)c(C(F)(F)F)c1)c1ccco1 [Example 1.3.55, N-(4-(2,4-dioxo-1,3-diazaspiro[4.5]decan-3-yl)-3-(trifluoromethyl)phenyl)furan-2-carboxamide]",4.12
